Laboratory results: patent publication US20080318910A1, “Controlled-Release Oral Dosage Form” (MISTRAL PHARMA, INC., priority 2005, published 2008)
≈ marks a conversion by molar mass, not a printed value.

Assay: physchem

solubility (aqueous buffer, solubility, pH higher than 4.8) [µg/mL]	solubility (aqueous buffer, solubility, pH lower than 4.8) [µg/mL]	Structure (SMILES)	solubility (pH 2, simulated gastric fluid) [µg/mL]	solubility (pH 5.5, aqueous buffer) [µg/mL]
~333000 (≈ 2970 mM)	~2500 (≈ 22.3 mM)	C/C=C/C=C/C(=O)O [Sorbic acid]		
		CCC(COC(=O)c1cc(OC)c(OC)c(OC)c1)(c1ccccc1)N(C)C (stereo not shown) [Trimebutine]	~11000 (≈ 28.4 mM)	1000 (≈ 2.58 mM)
